In patent publication US20230059009A1, “INHIBITORS OF LIN28 AND METHODS OF USE THEREOF” (The Regents of the University of California, priority 2019, published 2023):
pIC50: −log10 of the molar value. Entries after “also recorded” stand apart in the source; their conditions may differ.

Experiments:
MCF7 = assay: Cell viability, CTG, MCF7; format: cell-based; details: Homo sapiens, MCF7 (Breast)
Protocol: To measure cell viability, cell titer glow (CTG, Promega CellTiter-Glo 2.0 Assay) and MTT assays (SigmaAldrich, Cell Proliferation Kit I) were performed. Briefly, cells were serum starved overnight prior to seeding in 96-well plates. Following 24 h incubation, cells were treated with increasing concentrations of JGJ compounds for 96 hr. At assay read-out, CellTiter-Glo reagent was added and luminescence was measured after 10-minutes incubation at room temperature. For the MTT assay, MTT labeling reagent was added and incubated for 4 h. Subsequently, medium was removed and 50 μL DMSO was added to solubilize the crystals, and absorbance was measured at 570 nm. Cell viability was calculated as (Sample-Background)/(Control-Background). Current standard of care drugs, Enzalutamide, Palbociclib and Cetuximab were used as comparative controls.

Kasumi-1 = assay: Systemic Kasumi-1 AML xenograft; format: in vivo, mice; details: systemic Kasumi-1 xenograft; for Animal survival: IP 100 mg/kg every other day for 21 d; for Tumor burden (bioluminescence imaging): IP 100 mg/kg every other day, d+26
Protocol: Subsequently, the tumor suppressive effect of LN1632 in cancer in vivo was assessed. High LIN28B expressing THP-1 AML cells (2×10^6 cells) were implanted in NSGS mice (cell suspension in matrigel, 3:1) and at d+12 or d+8 (tumor size=50 mm^2) injection of LN1632 IP at 100 mg/kg daily was initiated. […] The effect of LN1632 in a systemic Kasumi-1 xenograft was also assessed. […] The effects of LN1632 to cytarabine chemotherapy (Ara-C) was also compared, as previously described (74). THP-1 AML cells were subcutaneously implanted (1.5×10^6 cells, high LIN28B) in NSGS mice. Daily IP injections with 100 mg/kg LN1632, 60 mg/kg cytarabine chemotherapy (Ara-C), or vehicle was started at +d3 post AML cell implantation and continued until the vehicle group reached maximal allowed tumor size (250 mm^2).

CD34+ AML pt. #13 cells = assay: CFC assay, AML pt #13 CD34+ cells vs healthy CD34+ BM cells; format: cell-based, human; details: AML pt #13 vs healthy donor CD34+ cells; 80-120 μM
LSCs = assay: Colony forming capacity (CFC) of iMLL-AF9 LT-HSC derived LSCs; format: cell-based, mouse; details: 200 nM Ara-C or 30 μM 1632, 48 h
Source text: In addition, Lin28 was independently found to be a key driver in MLL-associated leukemias (56). In order to further characterize the role of Lin28/let-7 in regulating AML, LSC proliferation and therapy resistance in vivo, we used a doxycycline (DOX) inducible, transgenic mouse model for MLL-AF9-driven AML (iMLL-AF9 (57)). In this model, long-term HSC (LT-HSC, Lin^−CD34^−[…] c-Kit^+ CD150^+ CD48^−) derived AML blasts closely mirror an LSC-like phenotype resulting in a particularly aggressive, Cytarabine (Ara-C) resistant AML (57). […] Moreover, relapsed AML cells arising from rLSCs after treatment with Ara-C (100 mg/kg) at d+60 were even further enriched in Lin28b expression (FIG. 2B). Additionally, levels of both, let-7a and let-7b miRNAs, negatively correlated with increased Lin28b in rLSCs (FIG. 2C) (10, 39). Our findings are consistent with papers reporting that increased Lin28 correlates with disease recurrence post chemotherapy in colon and liver cancer stem cells (22, 58).
As Lin28 is overexpressed human AML, LSCs and rLSCs, we sought to determine if genetic Lin28b or pharmacologic Lin28/let-7 inhibition via LN1632 can abrogate proliferation of LSCs and thus overcome their therapy resistance. […]

| Structure (SMILES) | pIC50 (MCF7) | Animal survival (Kasumi-1; 100 mg/kg) | Animal survival (Kasumi-1; listed as 1632, 100 mg/kg) | Tumor burden (bioluminescence imaging) (Kasumi-1; 100 mg/kg) | Tumor burden (bioluminescence imaging) (Kasumi-1; listed as 1632, 100 mg/kg) | Colony formation (CFC) (CD34+ AML pt. #13 cells) | Colony forming capacity cell numbers (CFCs) of LSCs (LSCs) |
| --- | --- | --- | --- | --- | --- | --- | --- |
| CC(=O)Nc1cccc(-c2ccc3ncc(C)n3n2)c1 [JGJ007, N-(3-(3-Methylimidazo[1,2-b]pyridazin-6-yl)phenyl)acetamide] | 3.94 |  |  |  |  |  |  |
| CC(=O)N(C)c1cccc(-c2ccc3nnc(C)n3n2)c1 [LN1632] |  | significantly prolonged animal survival; also recorded: prolongs survival | prolongs survival; also recorded: significantly prolonged animal survival | decreased tumor burden; also recorded: reduces tumor burden | reduces tumor burden; also recorded: decreased tumor burden | affects colony formation of CD34^+ AML pt. #13 cells significantly more than healthy CD34^+BM cells | significantly abrogated CFCs of LSCs |
